In patent publication US10597388B2, “Pyridazinone herbicides” (FMC CORPORATION, priority 2014, dated 2020):

How the values were obtained:
Experiment in all cases: Test C greenhouse herbicide test, pre- and postemergence
Format in all cases: in vivo
[1] = system: barnyardgrass (Echinochloa crus-galli)
Excerpt: (§1) Seeds of plant species selected from blackgrass (Alopecurus myosuroides), ryegrass, Italian (Italian ryegrass, Lolium multiflorum), wheat (winter wheat, Triticum aestivum), galium (catchweed bedstraw, Galium aparine), corn (Zea mays), large crabgrass, large (large crabgrass, Digitaria sanguinalis), foxtail, giant (giant foxtail, Setaria faberii), johnsongrass (Sorghum halepense), lambsquarters (Chenopodium album), morningglory (Ipomoea coccinea), nutsedge, yellow (yellow nutsedge, Cyperus esculentus), pigweed (Amaranthus retroflexus), ragweed (common ragweed, Ambrosia elatior), soybean (Glycine max), barnyardgrass (Echinochloa crus-galli), oilseed rape (Brassica napus), waterhemp (common waterhemp, Amaranthus rudis), and velvetleaf (Abutilon theophrasti) were planted into a blend of loam soil and sand and treated preemergence with test chemicals formulated in a non-phytotoxic solvent mixture which included a surfactant.
(§2) At the same time, plants selected from these crop and weed species and also chickweed (common chickweed, Stellaria media), kochia (Kochia scoparia), and oat, wild (wild oat, Avena fatua), were planted in pots containing Redi-Earth® planting medium (Scotts Company, 14111 Scottslawn Road, Marysville, Ohio 43041) comprising spaghnum peat moss, vermiculite, wetting agent and starter nutrients and treated with postemergence applications of test chemicals formulated in the same manner. Plants ranged in height from 2 to 18 cm (1- to 4-leaf stage) for postemergence treatments. Treated plants and controls were maintained in a greenhouse for 13 to 15 d, after which time all species were compared to controls and visually evaluated. Plant response ratings, summarized in Table C, are based on a scale of 0 to 100 where 0 is no effect and 100 is complete control. A dash (-) response means no test result.

[2] = system: blackgrass (Alopecurus myosuroides)
Excerpt: as §1, §2

corn (Zea mays) = system: corn (Zea mays)
Excerpt: as §1, §2

[3] = system: crabgrass, large (large crabgrass, Digitaria sanguinalis)
Excerpt: as §1, §2

[4] = system: johnsongrass (Sorghum halepense)
Excerpt: as §1, §2

[5] = system: lambsquarters (Chenopodium album)
Excerpt: as §1, §2

[6] = system: morningglory (Ipomoea coccinea)
Excerpt: as §1, §2

[7] = system: nutsedge, yellow (yellow nutsedge, Cyperus esculentus)
Excerpt: as §1, §2

[8] = system: pigweed (Amaranthus retroflexus)
Excerpt: as §1, §2

[9] = system: ragweed (common ragweed, Ambrosia elatior)
Excerpt: as §1, §2

[10] = system: ryegrass, Italian (Italian ryegrass, Lolium multiflorum)
Excerpt: as §1, §2

soybean (Glycine max) = system: soybean (Glycine max)
Excerpt: as §1, §2

[11] = system: velvetleaf (Abutilon theophrasti)
Excerpt: as §1, §2

[12] = system: waterhemp (common waterhemp, Amaranthus rudis)
Excerpt: as §1, §2

[13] = system: wheat (winter wheat, Triticum aestivum)
Excerpt: as §1, §2

[14] = Postemergence, 31 g ai/ha, 0 to 100 scale (0 no effect, 100 complete control)
[15] = Postemergence, 125 g ai/ha, scale 0 to 100, 0 is no effect, 100 is complete control
[16] = Postemergence, 250 g ai/ha, scale 0 to 100, 0 no effect, 100 complete control, 13 to 15 d
[17] = Preemergence, 31 g ai/ha, scale 0 to 100, 0 is no effect, 100 is complete control
[18] = Preemergence, 62 g ai/ha, scale 0 to 100, 0 is no effect, 100 is complete control
[19] = Preemergence, 125 g ai/ha, scale 0 to 100, 0 is no effect, 100 is complete control
[20] = Preemergence, 250 g ai/ha, scale 0 to 100, 0 no effect, 100 complete control
[21] = postemergence, 62 g ai/ha, scale 0 to 100, 0 no effect, 100 complete control

SMILES: CC(=O)Oc1c(C)nn(C)c(=O)c1-c1c(C)cc(C)c2ccccc12 [Compound 99]
- Barnyardgrass plant response rating [1, 14]: 25
- Plant response rating, Barnyardgrass [1, 15]: 35
- Plant response rating, Barnyardgrass [1, 16]: 35
- Plant response rating, Barnyardgrass [1, 17]: 5
- Plant response rating, Barnyardgrass [1, 18]: 15
- Plant response rating, Barnyardgrass [1, 19]: 55
- Barnyardgrass plant response rating [1, 20]: 85
- Barnyardgrass plant response rating [1, 21]: 25
- Blackgrass plant response rating [2, 14]: 20
- Plant response rating, Blackgrass [2, 15]: 50
- Plant response rating, Blackgrass [2, 16]: 65
- Plant response rating, Blackgrass [2, 17]: 50
- Plant response rating, Blackgrass [2, 18]: 70
- Plant response rating, Blackgrass [2, 19]: 90
- Blackgrass plant response rating [2, 20]: 90
- Blackgrass plant response rating [2, 21]: 30
- Corn plant response rating (corn (Zea mays); [14]): 0
- Plant response rating, Corn (corn (Zea mays); [15]): 10
- Plant response rating, Corn (corn (Zea mays); [16]): 10
- Plant response rating, Corn (corn (Zea mays); [17]): 5
- Plant response rating, Corn (corn (Zea mays); [18]): 20
- Plant response rating, Corn (corn (Zea mays); [19]): 10
- Corn plant response rating (corn (Zea mays); [20]): 30
- Corn plant response rating (corn (Zea mays); [21]): 5
- Plant response rating, Crabgrass, Large [3, 15]: 30
- Plant response rating, Crabgrass, Large [3, 16]: 50
- Plant response rating, Crabgrass, Large [3, 17]: 30
- Plant response rating, Crabgrass, Large [3, 18]: 35
- Plant response rating, Crabgrass, Large [3, 19]: 60
- Crabgrass, Large plant response rating [3, 20]: 80
- Crabgrass, Large plant response rating [3, 21]: 20
- Plant response rating, Johnsongrass [4, 15]: 10
- Plant response rating, Johnsongrass [4, 16]: 5
- Plant response rating, Johnsongrass [4, 17]: 0
- Plant response rating, Johnsongrass [4, 18]: 0
- Plant response rating, Johnsongrass [4, 19]: 0
- Johnsongrass plant response rating [4, 20]: 20
- Johnsongrass plant response rating [4, 21]: 10
- Plant response rating, Lambsquarters [5, 15]: 85
- Plant response rating, Lambsquarters [5, 16]: 98
- Plant response rating, Lambsquarters [5, 17]: 25
- Plant response rating, Lambsquarters [5, 18]: 80
- Plant response rating, Lambsquarters [5, 19]: 100
- Lambsquarters plant response rating [5, 20]: 95
- Lambsquarters plant response rating [5, 21]: 75
- Plant response rating, Morningglory [6, 15]: 100
- Plant response rating, Morningglory [6, 16]: 100
- Plant response rating, Morningglory [6, 17]: 80
- Plant response rating, Morningglory [6, 18]: 85
- Plant response rating, Morningglory [6, 19]: 90
- Morningglory plant response rating [6, 20]: 95
- Morningglory plant response rating [6, 21]: 95
- Plant response rating, Nutsedge, Yellow [7, 15]: 75
- Plant response rating, Nutsedge, Yellow [7, 16]: 85
- Plant response rating, Nutsedge, Yellow [7, 17]: 20
- Plant response rating, Nutsedge, Yellow [7, 18]: 70
- Plant response rating, Nutsedge, Yellow [7, 19]: 60
- Nutsedge, Yellow plant response rating [7, 20]: 90
- Nutsedge, Yellow plant response rating [7, 21]: 55
- Plant response rating, Pigweed [8, 15]: 98
- Plant response rating, Pigweed [8, 16]: 95
- Plant response rating, Pigweed [8, 17]: 95
- Plant response rating, Pigweed [8, 18]: 100
- Plant response rating, Pigweed [8, 19]: 100
- Pigweed plant response rating [8, 20]: 100
- Pigweed plant response rating [8, 21]: 75
- Plant response rating, Ragweed [9, 15]: 95
- Plant response rating, Ragweed [9, 16]: 100
- Plant response rating, Ragweed [9, 17]: 70
- Plant response rating, Ragweed [9, 18]: 90
- Plant response rating, Ragweed [9, 19]: 95
- Ragweed plant response rating [9, 20]: 95
- Ragweed plant response rating [9, 21]: 90
- Plant response rating, Ryegrass, Italian [10, 15]: 95
- Plant response rating, Ryegrass, Italian [10, 16]: 95
- Plant response rating, Ryegrass, Italian [10, 17]: 90
- Plant response rating, Ryegrass, Italian [10, 18]: 90
- Plant response rating, Ryegrass, Italian [10, 19]: 100
- Ryegrass, Italian plant response rating [10, 20]: 100
- Ryegrass, Italian plant response rating [10, 21]: 90
- Plant response rating, Soybean (soybean (Glycine max); [15]): 5
- Plant response rating, Soybean (soybean (Glycine max); [16]): 5
- Plant response rating, Soybean (soybean (Glycine max); [17]): 0
- Plant response rating, Soybean (soybean (Glycine max); [18]): 0
- Plant response rating, Soybean (soybean (Glycine max); [19]): 5
- Soybean plant response rating (soybean (Glycine max); [20]): 20
- Soybean plant response rating (soybean (Glycine max); [21]): 5
- Plant response rating, Velvetleaf [11, 15]: 98
- Plant response rating, Velvetleaf [11, 16]: 100
- Plant response rating, Velvetleaf [11, 17]: 60
- Plant response rating, Velvetleaf [11, 18]: 75
- Plant response rating, Velvetleaf [11, 19]: 90
- Velvetleaf plant response rating [11, 20]: 95
- Velvetleaf plant response rating [11, 21]: 85
- Plant response rating, Waterhemp [12, 15]: 95
- Plant response rating, Waterhemp [12, 16]: 98
- Plant response rating, Waterhemp [12, 17]: 85
- Plant response rating, Waterhemp [12, 18]: 100
- Plant response rating, Waterhemp [12, 19]: 98
- Waterhemp plant response rating [12, 20]: 100
- Waterhemp plant response rating [12, 21]: 75
- Plant response rating, Wheat [13, 15]: 10
- Plant response rating, Wheat [13, 16]: 10
- Plant response rating, Wheat [13, 17]: 0
- Plant response rating, Wheat [13, 18]: 0
- Plant response rating, Wheat [13, 19]: 30
- Wheat plant response rating [13, 20]: 65
- Wheat plant response rating [13, 21]: 0
